As usually defined, the Dmax is the largest share of the target that was removed. A higher Dmax goes with a fuller loss of target. One may read the DC50 as the concentration at which degradation of the target reaches its halfway point. A lower DC50 goes with a more potent degrader.

Results on 16 compounds are retold here after US12139492B2 (Endotarget Inc., priority 2021, dated 2024).

Like-named read-outs stand apart in the source and are kept apart here. Where only a bound is given, the exact number is not on record here.

The target in one experiment is BTK (Homo sapiens, UniProt Q06187). As to the kind of experiment: Degradation of BTK protein in Namalwa cells (Western blot; DC50, Dmax). Conditions: for DC50: BTK degradation, cell line not given.
BTK, sequence (Q06187 whole entry): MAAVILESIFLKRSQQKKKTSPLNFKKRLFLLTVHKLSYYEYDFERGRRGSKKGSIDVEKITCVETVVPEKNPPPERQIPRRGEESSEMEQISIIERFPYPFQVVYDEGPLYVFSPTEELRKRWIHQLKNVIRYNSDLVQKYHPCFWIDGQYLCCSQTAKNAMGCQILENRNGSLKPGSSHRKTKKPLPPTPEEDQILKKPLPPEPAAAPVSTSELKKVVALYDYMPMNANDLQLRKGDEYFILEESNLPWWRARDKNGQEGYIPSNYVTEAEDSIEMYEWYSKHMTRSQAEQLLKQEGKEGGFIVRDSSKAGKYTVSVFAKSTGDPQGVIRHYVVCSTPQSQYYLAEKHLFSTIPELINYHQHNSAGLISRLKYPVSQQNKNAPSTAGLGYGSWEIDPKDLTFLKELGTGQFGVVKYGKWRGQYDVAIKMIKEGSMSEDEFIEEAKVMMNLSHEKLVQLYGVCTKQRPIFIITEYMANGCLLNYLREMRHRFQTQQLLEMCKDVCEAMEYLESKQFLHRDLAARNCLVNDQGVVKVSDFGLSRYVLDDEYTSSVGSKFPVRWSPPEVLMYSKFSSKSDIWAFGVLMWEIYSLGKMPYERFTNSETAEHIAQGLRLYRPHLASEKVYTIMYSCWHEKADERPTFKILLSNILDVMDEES
For another experiment, the system named is JeKo-1 cells. As to the kind of experiment: Antiproliferative effect, MTS cell viability assay, JeKo-1 cells. Format: cell-based. The following applies: Homo sapiens; JeKo-1 mantle cell lymphoma cells; read-out: IC50 (anti-proliferation) JeKO-1 cells. The procedure: (§1) Antiproliferative effect of the exemplary compounds was assessed in B-cell malignancy models.
(§2) To assess the effect of the exemplary compounds on cell viability in B-cell malignancy models by degradation of BTK protein, Mino and JeKo-1 cells were treated with varying concentrations of Ibrutinib (0, 0.001, 0.01, 0.1, 1, 10 μM). Under these conditions, cell viability was determined by an MTS assay. Cytotoxicity was assayed by the determination of reduced tetrazolium (formazan) created by metabolically active cells as detected at 490 nm absorbance using a microplate reader (BMG Labtech, Cary, NC, USA).
(§3) The exemplary compounds attenuated the viability of Mino and JeKo-1 cells in a concentration-dependent manner at 72 h post treatment. Results are shown in Table 1 for each exemplary compound.
(Tetrazolium dyes change colour on reduction, which living cells bring about.)

The next experiment has as its system Mino cells. The experiment can be described thus: Antiproliferative effect, MTS cell viability assay, Mino cells. Format: cell-based. Conditions: Homo sapiens, Mino mantle cell lymphoma cells, read-out: IC50 (anti-proliferation) Mino cells. As for the experimental part: as §1, §2, §3

Turning to `Nc1ncnc2c1c(-c1ccc(Oc3ccccc3)cc1)nn2C1CCN(CC2CCN(CCN3CCC(c4ccc5c(c4)CN(C4CCC(=O)NC4=O)C5=O)CC3)CC2)CC1` (centres unmarked) [Compound 206, 3-(5-(1-(2-(4-((4-(4-amino-3-(4-phenoxyphenyl)-1H-pyrazolo[3,4-d]pyrimidin-1-yl)piperidin-1-yl)methyl)piperidin-1-yl)ethyl)piperidin-4-yl)-1-oxoisoindolin-2-yl)piperidine-2,6-dione], at BTK, the Dmax is over 90% and the half-maximal degradation concentration (DC50) is 10 to 50 nM. In addition, the IC50 in the experiment on JeKo-1 cells was under 1000 nM. Moreover, the IC50 with Mino cells (MINO) was under 1000 nM.

On BTK, `Nc1ncnc2c1c(-c1ccc(Oc3ccccc3)cc1)nn2C1CCN(CC2CCN(CCCN3CCN(c4ccc5c(c4)C(=O)N(C4CCC(=O)NC4=O)C5=O)CC3)CC2)CC1` (centres unmarked) [Compound 207] came in with a Dmax of over 75% and a 50% degradation concentration (DC50) of over 50 nM. Further, the IC50 in the experiment with JeKo-1 cells is over 10000 nM. For the same compound, in the experiment on Mino cells (MINO), the IC50 is over 10000 nM.

Turning to `Nc1ncnc2c1c(-c1ccc(Oc3ccccc3)cc1)nn2C1CCN(CC2CCN(CCCN3CCN(c4ccc5c(c4)CN(C4CCC(=O)NC4=O)C5=O)CC3)CC2)CC1` (centres unmarked) [Compound 208, 3-(5-(4-(3-(4-((4-(4-amino-3-(4-phenoxyphenyl)-1H-pyrazolo[3,4-d]pyrimidin-1-yl)piperidin-1-yl)methyl)piperidin-1-yl)propyl)piperazin-1-yl)-1-oxoisoindolin-2-yl)piperidine-2,6-dione], at BTK, the Dmax was over 75% and the DC50 was over 50 nM. Besides, in the experiment on JeKo-1 cells, the IC50 was over 10000 nM. Moreover, in the experiment with Mino cells (MINO), the IC50 was over 10000 nM.

On to `Nc1ncnc2c1c(-c1ccc(Oc3ccccc3)cc1)nn2C1CCN(CC2CCN(CCCN3CCC(c4ccc5c(c4)C(=O)N(C4CCC(=O)NC4=O)C5=O)CC3)CC2)CC1` (centres unmarked) [Compound 209, 5-(1-(3-(4-((4-(4-amino-3-(4-phenoxyphenyl)-1H-pyrazolo[3,4-d]pyrimidin-1-yl)piperidin-1-yl)methyl)piperidin-1-yl)propyl)piperidin-4-yl)-2-(2,6-dioxopiperidin-3-yl)isoindoline-1,3-dione], for which the greatest degradation seen (Dmax) at BTK was over 75%. The same compound registered a DC50 on BTK of 10 to 50 nM. Further, the IC50 in the experiment with JeKo-1 cells and with Mino cells (MINO) was over 10000 nM each time.

On BTK, `Nc1ncnc2c1c(-c1ccc(Oc3ccccc3)cc1)nn2C1CCN(CC2CCN(CCCN3CCC(c4ccc5c(c4)CN(C4CCC(=O)NC4=O)C5=O)CC3)CC2)CC1` (centres unmarked) [Compound 210, 3-(5-(1-(3-(4-((4-(4-amino-3-(4-phenoxyphenyl)-1H-pyrazolo[3,4-d]pyrimidin-1-yl)piperidin-1-yl)methyl)piperidin-1-yl)propyl)piperidin-4-yl)-1-oxoisoindolin-2-yl)piperidine-2,6-dione] yielded a maximal degradation (Dmax) of over 75% and a DC50 of 10 to 50 nM. Also, the IC50 in the experiment with JeKo-1 cells fell in the range of 1000 to 10000 nM. Moreover, the IC50 in the experiment with Mino cells (MINO) was in the range of 1000 to 10000 nM.

`Nc1ncnc2c1c(-c1ccc(Oc3ccccc3)cc1)nn2C1CCN(CC2CCN(CCCC3CCN(c4ccc5c(c4)C(=O)N(C4CCC(=O)NC4=O)C5=O)CC3)CC2)CC1` (centres unmarked) [Compound 211, 5-(4-(3-(4-((4-(4-amino-3-(4-phenoxyphenyl)-1H-pyrazolo[3,4-d]pyrimidin-1-yl)piperidin-1-yl)methyl)piperidin-1-yl)propyl)piperidin-1-yl)-2-(2,6-dioxopiperidin-3-yl)isoindoline-1,3-dione]: at BTK, the greatest degradation seen (Dmax) is over 75% and the DC50 was in the range of 10 to 50 nM. Further, the IC50 in the experiment with JeKo-1 cells is over 10000 nM. Further, in the experiment on Mino cells (MINO), the IC50 lay within 1000 to 10000 nM.

On BTK, `Nc1ncnc2c1c(-c1ccc(Oc3ccccc3)cc1)nn2C1CCN(CC2CCN(CCCC3CCN(c4ccc5c(c4)CN(C4CCC(=O)NC4=O)C5=O)CC3)CC2)CC1` (centres unmarked) [Compound 212, 3-(5-(4-(3-(4-((4-(4-amino-3-(4-phenoxyphenyl)-1H-pyrazolo[3,4-d]pyrimidin-1-yl)piperidin-1-yl)methyl)piperidin-1-yl)propyl)piperidin-1-yl)-1-oxoisoindolin-2-yl)piperidine-2,6-dione] registered a Dmax of over 90% and a 50% degradation concentration (DC50) of 10 to 50 nM. Besides, the IC50 in the experiment on JeKo-1 cells is over 10000 nM. Further, in the experiment on Mino cells (MINO), the IC50 lay within 1000 to 10000 nM.

At BTK, `Nc1ncnc2c1c(-c1ccc(Oc3ccccc3)cc1)nn2C1CCN(C2CCN(CC3CCN(c4ccc5c(c4)C(=O)N([C@@H]4CCC(=O)NC4=O)C5=O)CC3)CC2)CC1` [Compound 213a, (R)-5-(4-((4-(4-amino-3-(4-phenoxyphenyl)-1H-pyrazolo[3,4-d]pyrimidin-1-yl)[1,4′-bipiperidin]-1′-yl)methyl)piperidin-1-yl)-2-(2,6-dioxopiperidin-3-yl)isoindoline-1,3-dione] showed a Dmax of over 90% and a 50% degradation concentration (DC50) of under 10 nM. The IC50 in the experiment on JeKo-1 cells is under 1000 nM. In addition, in the experiment with Mino cells (MINO), the IC50 was under 1000 nM.

Consider `Nc1ncnc2c1c(-c1ccc(Oc3ccccc3)cc1)nn2C1CCN(C2CCN(CC3CCN(c4ccc5c(c4)CN(C4CCC(=O)NC4=O)C5=O)CC3)CC2)CC1` (centres unmarked) [Compound 214], for which, at BTK, the greatest degradation seen (Dmax) was under 50% and the DC50 is over 50 nM. Moreover, the “degradation of BTK protein” value at BTK (Namalwa B lymphocyte cells, various concentrations, 24 hours, Western blot) is “dose-dependent degradation”. Moreover, the IC50 with JeKo-1 cells fell in the range of 1000 to 10000 nM. Moreover, in the experiment on Mino cells, the IC50 lay in the range of 1000 to 10000 nM.

At BTK, `Nc1ncnc2c1c(-c1ccc(Oc3ccccc3)cc1)nn2C1CCN(C2CCN(CCC3CCN(c4ccc5c(c4)C(=O)N(C4CCC(=O)NC4=O)C5=O)CC3)CC2)CC1` (centres unmarked) [Compound 215, 5-(4-(2-(4-(4-amino-3-(4-phenoxyphenyl)-1H-pyrazolo[3,4-d]pyrimidin-1-yl)-[1,4′-bipiperidin]-1′-yl)ethyl)piperidin-1-yl)-2-(2,6-dioxopiperidin-3-yl)isoindoline-1,3-dione] gave a Dmax of over 75% and a DC50 of 10 to 50 nM. Also, the IC50 with JeKo-1 cells was under 1000 nM. In the experiment with Mino cells (MINO), the IC50 was in the range of 1000 to 10000 nM.

Regarding `Nc1ncnc2c1c(-c1ccc(Oc3ccccc3)cc1)nn2C1CCN(C2CCN(CCC3CCN(c4ccc5c(c4)CN(C4CCC(=O)NC4=O)C5=O)CC3)CC2)CC1` (centres unmarked) [Compound 216, 3-(5-(4-(2-(4-(4-amino-3-(4-phenoxyphenyl)-1H-pyrazolo[3,4-d]pyrimidin-1-yl)-[1,4′-bipiperidin]-1′-yl)ethyl)piperidin-1-yl)-1-oxoisoindolin-2-yl)piperidine-2,6-dione], at BTK, the Dmax is over 75% and the DC50 lay within 10 to 50 nM. Further, the IC50 in the experiment on JeKo-1 cells was under 1000 nM. Besides, the IC50 in the experiment on Mino cells (MINO) is under 1000 nM.

`Nc1ncnc2c1c(-c1ccc(Oc3ccccc3)cc1)nn2C1CCN(C2CCN(CCN3CCN(c4ccc5c(c4)C(=O)N(C4CCC(=O)NC4=O)C5=O)CC3)CC2)CC1` (centres unmarked) [Compound 217, 5-(4-(2-(4-(4-amino-3-(4-phenoxyphenyl)-1H-pyrazolo[3,4-d]pyrimidin-1-yl)-[1,4′-bipiperidin]-1′-yl)ethyl)piperazin-1-yl)-2-(2,6-dioxopiperidin-3-yl)isoindoline-1,3-dione]: at BTK, the Dmax is over 75% and the 50% degradation concentration (DC50) was 10 to 50 nM. For the same compound, the IC50 in the experiment with JeKo-1 cells was under 1000 nM. Moreover, the IC50 with Mino cells (MINO) lay in the range of 1000 to 10000 nM.

`Nc1ncnc2c1c(-c1ccc(Oc3ccccc3)cc1)nn2C1CCN(C2CCN(CCN3CCN(c4ccc5c(c4)CN(C4CCC(=O)NC4=O)C5=O)CC3)CC2)CC1` (centres unmarked) [Compound 218, 3-(5-(4-(2-(4-(4-amino-3-(4-phenoxyphenyl)-1H-pyrazolo[3,4-d]pyrimidin-1-yl)-[1,4′-bipiperidin]-1′-yl)ethyl)piperazin-1-yl)-1-oxoisoindolin-2-yl)piperidine-2,6-dione] came in with a Dmax at BTK of over 75%. Moreover, the DC50 at BTK is 10 to 50 nM. Further, the IC50 was under 1000 nM in the experiment on JeKo-1 cells and 1000 to 10000 nM in the experiment on Mino cells (MINO).

In the case of `Nc1ncnc2c1c(-c1ccc(Oc3ccccc3)cc1)nn2C1CCN(C2CCN(CCN3CCC(c4ccc5c(c4)C(=O)N(C4CCC(=O)NC4=O)C5=O)CC3)CC2)CC1` (centres unmarked) [Compound 219, 5-(1-(2-(4-(4-amino-3-(4-phenoxyphenyl)-1H-pyrazolo[3,4-d]pyrimidin-1-yl)-[1,4′-bipiperidin]-1′-yl)ethyl)piperidin-4-yl)-2-(2,6-dioxopiperidin-3-yl)isoindoline-1,3-dione], the Dmax at BTK is over 50%. This compound yielded a DC50 at BTK of 10 to 50 nM. In addition, the IC50 in the experiment with JeKo-1 cells and in the experiment on Mino cells (MINO) was 1000 to 10000 nM in each case.

As to `Nc1ncnc2c1c(-c1ccc(Oc3ccccc3)cc1)nn2C1CCN(C2CCN(CCN3CCC(c4ccc5c(c4)CN(C4CCC(=O)NC4=O)C5=O)CC3)CC2)CC1` (centres unmarked) [Compound 220, 3-(5-(1-(2-(4-(4-amino-3-(4-phenoxyphenyl)-1H-pyrazolo[3,4-d]pyrimidin-1-yl)-[1,4′-bipiperidin]-1′-yl)ethyl)piperidin-4-yl)-1-oxoisoindolin-2-yl)piperidine-2,6-dione], at BTK, the Dmax was over 75% and the DC50 is 10 to 50 nM. The IC50 in the experiment with JeKo-1 cells lay in the range of 1000 to 10000 nM. The IC50 in the experiment on Mino cells (MINO) lay within 1000 to 10000 nM.

The compound `Nc1ncnc2c1c(-c1ccc(Oc3ccccc3)cc1)nn2C1CCN(C2CCN(CCCN3CCN(c4ccc5c(c4)C(=O)N(C4CCC(=O)NC4=O)C5=O)CC3)CC2)CC1` (centres unmarked) [Compound 221, 5-(4-(3-(4-(4-amino-3-(4-phenoxyphenyl)-1H-pyrazolo[3,4-d]pyrimidin-1-yl)-[1,4′-bipiperidin]-1′-yl)propyl)piperazin-1-yl)-2-(2,6-dioxopiperidin-3-yl)isoindoline-1,3-dione] came in with a Dmax at BTK of over 75%. At BTK, this compound registered a 50% degradation concentration (DC50) of 10 to 50 nM. In addition, the IC50 in the experiment with JeKo-1 cells was 1000 to 10000 nM; with Mino cells (MINO), over 10000 nM.
